Assay results reported in patent US5324502A, “Radiopharmaceuticals for imaging the heart” (priority 1992, dated 1994).
Read-outs that look alike come from different tables or passages of the source.

Legend:
[1] = Octanol/water partition coefficient of radiolabeled gallium complexes; format: physicochemical; conditions: octanol/tris buffer, pH 7
Procedure: Octanol/water partition coefficients were measured by vortex mixing 1 mL of 1-octanol and 1 mL of isotonic Tris buffer (pH 7.0) with a 1-5 μL sample of the radiolabeled gallium complex. Following centrifugation at >1200 g for 5 minutes, the octanol and aqueous phases were sampled and counted in an automatic well counter.

[2] = rat, i.v.
Procedure: The gallium-67 complexes are prepared by ligand exchange from gallium-67 chloride, employing the tris(acetylacetonato)gallium(III) complex as an intermediate. The Ga-67 acetylacetonate in ethanol is reacted with the chelating ligand or ligand precursor at elevated temperature to form rapidly the desired gallium radiopharmaceutical. […] The biodistribution of several radiopharmaceuticals was determined in rats following intravenous injection using techniques previously described (M. A. Green, Nuclear Medicine and Biology 14:59-61, 1987; E. John and M. A. Green, J. Medicinal Chemistry, 33:1764-1770, 1990).
Under ether anesthesia, 1 to 3 μCi (0.1-0.2 mL) of no-carrier-added Ga-67 compound was administered by bolus injection into the femoral vein of male Sprague-Dawley rats. The ether anesthetized rats were sacrificed by decapitation at given time intervals post-injection, organs of interest were removed, weighed, and the gallium-67 activity counted. The biodistribution was calculated as a percentage of the injected dose per gram of tissue and percentage of injected dose per organ for each sample.

SMILES: CCN(CC)c1ccc(C=NCCCNCCNCCCN=Cc2ccc(N(CC)CC)cc2[O-])c([O-])c1.[67Ga+3] [(4-deaSal)2 BAPEN]
- log P [1]: 2.44
- % Injected Dose per Gram Tissue, Blood ([2]; 1 min): 0.80 ± 0.01 % Injected Dose per Gram Tissu
- % Injected Dose per Gram Tissue, Brain ([2]; 1 min): 0.04 ± 0.01 % Injected Dose per Gram Tissu
- % Injected Dose per Gram Tissue, Heart ([2]; 1 min): 0.98 ± 0.07 % Injected Dose per Gram Tissu
- % Injected Dose per Gram Tissue, Kidney (one) ([2]; 1 min): 7.22 ± 0.48 % Injected Dose per Gram Tissu
- % Injected Dose per Gram Tissue, Liver ([2]; 1 min): 4.15 ± 0.25 % Injected Dose per Gram Tissu
- % Injected Dose per Gram Tissue, Lungs ([2]; 1 min): 1.16 ± 0.06 % Injected Dose per Gram Tissu
- % Injected Dose per Gram Tissue, Spleen ([2]; 1 min): 1.22 ± 0.47 % Injected Dose per Gram Tissu
- % injected dose in heart, 1 min ([2]; 1 min, preliminary studies): 0.69 ± 0.05 % injected dose
- % Injected Dose Per Gram of Tissue, Blood ([2]; 5 min): 0.39 ± 0.05 % Injected Dose Per Gram of Tissue
- % Injected Dose Per Gram of Tissue, Brain ([2]; 5 min): 0.02 ± 0.01 % Injected Dose Per Gram of Tissue
- % Injected Dose Per Gram of Tissue, Heart ([2]; 5 min): 0.91 ± 0.06 % Injected Dose Per Gram of Tissue
- % Injected Dose Per Gram of Tissue, Kidney (1) ([2]; 5 min): 7.11 ± 0.89 % Injected Dose Per Gram of Tissue
- % Injected Dose Per Gram of Tissue, Liver ([2]; 5 min): 3.96 ± 0.28 % Injected Dose Per Gram of Tissue
- % Injected Dose Per Gram of Tissue, Lungs ([2]; 5 min): 0.89 ± 0.19 % Injected Dose Per Gram of Tissue
- % Injected Dose Per Gram of Tissue, Spleen ([2]; 5 min): 1.19 % Injected Dose Per Gram of Tissue
- % Injected Dose per Gram Tissue, Blood ([2]; 15 min): 0.20 ± 0.03 % Injected Dose per Gram Tissu
- % Injected Dose per Gram Tissue, Brain ([2]; 15 min): 0.02 ± 0.00 % Injected Dose per Gram Tissu
- % Injected Dose per Gram Tissue, Heart ([2]; 15 min): 0.90 ± 0.06 % Injected Dose per Gram Tissu
- % Injected Dose per Gram Tissue, Kidney (one) ([2]; 15 min): 6.82 ± 0.53 % Injected Dose per Gram Tissu
- % Injected Dose per Gram Tissue, Liver ([2]; 15 min): 3.21 ± 0.25 % Injected Dose per Gram Tissu
- % Injected Dose per Gram Tissue, Lungs ([2]; 15 min): 0.70 ± 0.07 % Injected Dose per Gram Tissu
- % Injected Dose per Gram Tissue, Spleen ([2]; 15 min): 1.27 ± 0.17 % Injected Dose per Gram Tissu
- % Injected Dose per Gram Tissue, Blood ([2]; 120 min): 0.10 ± 0.01 % Injected Dose per Gram Tissu
- % Injected Dose per Gram Tissue, Brain ([2]; 120 min): 0.02 ± 0.01 % Injected Dose per Gram Tissu
- % Injected Dose per Gram Tissue, Heart ([2]; 120 min): 0.92 ± 0.10 % Injected Dose per Gram Tissu
- % Injected Dose per Gram Tissue, Kidney (one) ([2]; 120 min): 5.69 ± 0.75 % Injected Dose per Gram Tissu
- % Injected Dose per Gram Tissue, Liver ([2]; 120 min): 1.07 ± 0.10 % Injected Dose per Gram Tissu
- % Injected Dose per Gram Tissue, Lungs ([2]; 120 min): 0.53 ± 0.06 % Injected Dose per Gram Tissu
- % Injected Dose per Gram Tissue, Spleen ([2]; 120 min): 0.99 ± 0.18 % Injected Dose per Gram Tissu
- % injected dose in heart, 2 h ([2]; 2 h, preliminary studies): 0.65 ± 0.05 % injected dose
- Heart/Blood ([2]; ratio, 1 min): 1.22 ± 0.08
- Heart/Liver ([2]; ratio, 1 min): 0.24 ± 0.03
- Heart/Lungs ([2]; ratio, 1 min): 0.85 ± 0.10
- Heart/Blood ([2]; ratio, 5 min): 2.36 ± 0.25
- Heart/Liver ([2]; ratio, 5 min): 0.23 ± 0.02
- Heart/Lung ([2]; ratio, 5 min): 1.05 ± 0.19
- Heart/Blood ([2]; ratio, 15 min): 4.54 ± 0.31
- Heart/Liver ([2]; ratio, 15 min): 0.28 ± 0.04
- Heart/Lungs ([2]; ratio, 15 min): 1.29 ± 0.05
- Heart/Blood ([2]; ratio, 120 min): 9.21 ± 1.12
- Heart/Liver ([2]; ratio, 120 min): 0.86 ± 0.18
- Heart/Lungs ([2]; ratio, 120 min): 1.74 ± 0.35
